Measurements as given in paper PMC6192261 (Biochemical and biophysical research communications, 2018).

biological target: NgDapB (4-hydroxy-tetrahydrodipicolinate reductase from Neisseria gonorrhoeae) (Neisseria gonorrhoeae, UniProt Q5F5Y7); experiment: isothermal titration calorimetry; assay type: binding
Sequence (Q5F5Y7 whole entry): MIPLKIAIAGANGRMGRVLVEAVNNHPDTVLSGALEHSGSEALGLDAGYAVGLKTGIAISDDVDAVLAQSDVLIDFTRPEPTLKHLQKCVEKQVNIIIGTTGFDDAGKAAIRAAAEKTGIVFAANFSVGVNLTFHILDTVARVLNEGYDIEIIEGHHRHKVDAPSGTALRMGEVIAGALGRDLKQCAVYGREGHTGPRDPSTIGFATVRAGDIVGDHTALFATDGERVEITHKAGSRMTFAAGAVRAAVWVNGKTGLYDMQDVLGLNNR

Row | Compound | Kd [µM]
1 | O=C(O)c1cccc(C(=O)O)n1 [2,6-PDC, 2,6-pyridine dicarboxylic acid] | 21.2 ± 0.7
2 | NC(=O)C1=CN([C@@H]2O[C@H](COP(=O)(O)OP(=O)(O)OC[C@H]3O[C@@H](n4cnc5c(N)ncnc54)[C@H](O)[C@@H]3O)[C@@H](O)[C@H]2O)C=CC1 [NADH] | 2.5 ± 0.5
3 | NC(=O)C1=CN([C@@H]2O[C@H](COP(=O)(O)OP(=O)(O)OC[C@H]3O[C@@H](n4cnc5c(N)ncnc54)[C@H](OP(=O)(O)O)[C@@H]3O)[C@@H](O)[C@H]2O)C=CC1 [NADPH] | 4.8 ± 0.6
